Target: T1, PI3Kα H1047R (T47D cells) (Homo sapiens, UniProt P42336, H1047R)
T1 construct: endogenous in cells; host or cells: T47D cells
Experiment: PI3Kα cellular assay: pAKT HTRF in T47D cells after EGF stimulation
Format: cell-based
Conditions: for IC50: T47D cells (PI3Kα H1047R), pAKT S473 HTRF, EGF stimulation; for T47D pAKT S473 HTRF IC50 (H1047R): T47D (H1047R) selectivity over SKBR3 (WT): selectivity of T47D (H1047R) over SKBR3 (WT) pAKT IC50
How it was run: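 pAKT read by HTRF in lysates of EGF-stimulated (20 ng/mL, 10 min) T47D H1047R cells. Before stimulation, serum-starved cells (16 h) received compound for 1 h at 37 °C, dosed from 10,000 nM down to 0.5 nM in 3-fold steps.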

T1 sequence (P42336 whole entry H1047R): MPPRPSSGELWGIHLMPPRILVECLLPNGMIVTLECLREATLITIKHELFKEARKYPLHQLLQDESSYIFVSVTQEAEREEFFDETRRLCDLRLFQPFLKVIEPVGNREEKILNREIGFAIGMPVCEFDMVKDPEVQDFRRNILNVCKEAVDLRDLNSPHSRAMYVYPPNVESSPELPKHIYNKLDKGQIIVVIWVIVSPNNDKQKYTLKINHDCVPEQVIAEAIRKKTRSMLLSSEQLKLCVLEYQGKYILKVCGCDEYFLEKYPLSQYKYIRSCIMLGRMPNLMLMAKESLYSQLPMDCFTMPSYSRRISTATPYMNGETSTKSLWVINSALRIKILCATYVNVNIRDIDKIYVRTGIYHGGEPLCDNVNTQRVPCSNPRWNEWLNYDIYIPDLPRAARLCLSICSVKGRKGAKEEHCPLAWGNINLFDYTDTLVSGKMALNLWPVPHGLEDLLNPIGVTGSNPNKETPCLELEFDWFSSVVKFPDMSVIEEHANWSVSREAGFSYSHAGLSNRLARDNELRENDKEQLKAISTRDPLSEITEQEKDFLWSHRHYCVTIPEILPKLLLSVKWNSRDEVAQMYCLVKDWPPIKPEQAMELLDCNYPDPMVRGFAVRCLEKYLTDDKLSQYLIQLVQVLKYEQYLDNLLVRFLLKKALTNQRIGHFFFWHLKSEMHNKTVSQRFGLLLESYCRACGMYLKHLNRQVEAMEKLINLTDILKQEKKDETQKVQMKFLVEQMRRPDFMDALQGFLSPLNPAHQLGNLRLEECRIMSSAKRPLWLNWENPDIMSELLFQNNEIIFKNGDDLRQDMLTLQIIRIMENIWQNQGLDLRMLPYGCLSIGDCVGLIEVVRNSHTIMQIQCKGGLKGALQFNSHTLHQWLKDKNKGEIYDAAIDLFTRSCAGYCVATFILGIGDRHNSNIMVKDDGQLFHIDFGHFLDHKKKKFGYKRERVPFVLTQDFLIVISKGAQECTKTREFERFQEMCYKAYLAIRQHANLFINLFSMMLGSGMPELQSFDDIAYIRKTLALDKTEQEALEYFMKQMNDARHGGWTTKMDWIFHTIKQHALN
T1 sequence (P27986 whole entry partner): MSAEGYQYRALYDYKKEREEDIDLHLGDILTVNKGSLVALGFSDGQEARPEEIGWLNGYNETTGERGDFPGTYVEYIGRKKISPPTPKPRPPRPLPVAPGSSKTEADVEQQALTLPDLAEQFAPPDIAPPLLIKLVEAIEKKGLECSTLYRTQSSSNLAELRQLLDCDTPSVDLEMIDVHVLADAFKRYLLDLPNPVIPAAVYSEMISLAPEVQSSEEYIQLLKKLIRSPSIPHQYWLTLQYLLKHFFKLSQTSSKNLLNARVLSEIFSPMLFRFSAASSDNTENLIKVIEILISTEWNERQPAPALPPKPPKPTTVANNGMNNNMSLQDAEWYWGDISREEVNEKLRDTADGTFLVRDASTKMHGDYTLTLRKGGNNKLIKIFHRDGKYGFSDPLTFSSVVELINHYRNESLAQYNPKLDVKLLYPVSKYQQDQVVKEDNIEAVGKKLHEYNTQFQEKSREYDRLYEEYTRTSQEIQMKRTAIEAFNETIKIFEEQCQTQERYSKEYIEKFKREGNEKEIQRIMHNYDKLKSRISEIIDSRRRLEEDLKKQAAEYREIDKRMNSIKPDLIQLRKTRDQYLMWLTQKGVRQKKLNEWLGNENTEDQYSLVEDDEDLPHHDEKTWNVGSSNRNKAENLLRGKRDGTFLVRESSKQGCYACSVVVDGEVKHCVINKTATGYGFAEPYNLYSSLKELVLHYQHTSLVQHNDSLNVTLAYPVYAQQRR

Row | SMILES | IC50 | T47D pAKT S473 HTRF IC50 (H1047R): T47D (H1047R) selectivity over SKBR3 (WT)
1 | Cc1cc([C@@H](C)Nc2ccccc2C(=O)O)c2nc(-c3ccc4c(c3)c(N)nn4C)c(C)c(=O)n2c1 [Compound 785] | < 100 nM | A (A denotes >20-fold)
2 | Cc1cc([C@H](C)Nc2ccccc2C(=O)O)c2nc(-c3ccc4c(c3)c(N)nn4C)cc(=O)n2c1 [Compound 786] | > 2000 nM | C (C denotes ≤5-fold)
3 | Cc1cc([C@@H](C)Nc2ccccc2C(=O)O)c2nc(-c3ccc4c(c(N)nn4C)c3C)c(C)c(=O)n2c1 [Compound 787] | > 2000 nM | C (C denotes ≤5-fold)
4 | Cc1cc([C@H](C)Nc2ccccc2C(=O)O)c2nc(-c3ccc4c(c(N)nn4C)c3C)c(C)c(=O)n2c1 [Compound 788] | 100 to 500 nM | A (A denotes >20-fold)
5 | Cc1cc(C(C)Nc2ccccc2C(=O)O)c2nc(-c3ccc4c(c3)c(=O)[nH]n4C)cc(=O)n2c1 (stereo not shown) [Compound 790] | > 2000 nM | C (C denotes ≤5-fold)
6 | CCC(=O)Nc1ccc(C(=O)O)c(NC(C)c2cc(C)cn3c(=O)cc(N4CCOCC4)nc23)c1 (stereo not shown) [Compound 791] | > 2000 nM | C (C denotes ≤5-fold)
7 | CC(=O)Nc1nn(C)c2ccc(-c3cc(=O)n4cc(C)cc(C(C)Nc5ccccc5C(=O)O)c4n3)cc12 (stereo not shown) [Compound 792] | > 2000 nM | C (C denotes ≤5-fold)
8 | CC(=O)Nc1nn(C)c2ccc(-c3cc(=O)n4cc(C)cc([C@@H](C)Nc5ccccc5C(=O)O)c4n3)cc12 [Compound 793] | > 2000 nM | C (C denotes ≤5-fold)
9 | C=C(C)Nc1nn(C)c2ccc(-c3cc(=O)n4cc(C)cc([C@H](C)Nc5ccccc5C(=O)O)c4n3)cc12 [Compound 794] | 100 to 500 nM | A (A denotes >20-fold)
10 | C=C(C)N1CCC([C@@H]2C[C@@H]3CN(c4cc(=O)n5cc(C)cc([C@H](C)Nc6ccccc6C(=O)O)c5n4)C[C@@H]3C2)CC1 [Compound 796] | > 2000 nM | C (C denotes ≤5-fold)
11 | Cc1cc([C@@H](C)Nc2ccccc2C(=O)O)c2nc(-c3ccc4c(c3)c(C)cn4C)cc(=O)n2c1 [Compound 797] | > 2000 nM | C (C denotes ≤5-fold)
12 | Cc1cc([C@H](C)Nc2ccccc2C(=O)O)c2nc(-c3ccc4c(c3)c(C)cn4C)cc(=O)n2c1 [Compound 798] | < 100 nM | A (A denotes >20-fold)
13 | Cc1cc(C(C)Nc2ccccc2C(=O)O)c2nc(-n3cnc4ccc(O)cc43)cc(=O)n2c1 (stereo not shown) [Compound 799] | > 2000 nM | C (C denotes ≤5-fold)
14 | Cc1cc(C(C)Nc2ccccc2C(=O)O)c2nc(-n3cnc4ccc(O)cc43)cc(=O)n2c1 (stereo not shown) [Compound 801] | > 2000 nM | C (C denotes ≤5-fold)
15 | Cc1cc([C@@H](C)Nc2cccc3nonc23)c2nc(N3CCOCC3)cc(=O)n2c1 [Compound 802] | > 2000 nM | C (C denotes ≤5-fold)
16 | Cc1cc([C@H](C)Nc2ccccc2C(=O)O)c2nc(-c3cnc4c(c3)c(C)c(C)n4C)c(C)c(=O)n2c1 [Compound 805] | > 2000 nM | C (C denotes ≤5-fold)
17 | Cc1cc(CCNc2ccc(F)cc2C(=O)O)c2nc(N3CCOCC3)cc(=O)n2c1 [Compound 806] | > 2000 nM | C (C denotes ≤5-fold)
18 | Cc1cc([C@H](C)Nc2ccccc2C(=O)O)c2nc(-c3ccc4c(c3)c(C(F)F)nn4C)cc(=O)n2c1 [Compound 808] | > 2000 nM | C (C denotes ≤5-fold)
19 | Cc1cc([C@@H](C)Nc2ccccc2C(=O)O)c2nc(-c3ccc4snc(N)c4c3)cc(=O)n2c1 [Compound 809] | < 100 nM | A (A denotes >20-fold)
20 | Cc1cc([C@H](C)Nc2ccccc2C(=O)O)c2nc(-c3ccc4snc(N)c4c3)cc(=O)n2c1 [Compound 810] | > 2000 nM | C (C denotes ≤5-fold)
21 | Cc1cc([C@H](C)Nc2ccccc2C(=O)O)c2nc(-c3cc4c(cc3C)CC(N)=N4)cc(=O)n2c1 [Compound 811] | 500 to 2000 nM | B (B denotes 20-fold≥value>5-fold)
22 | Cc1cc([C@H](C)Nc2ccccc2C(=O)O)c2nc(-c3cnc4cc(O)ccn34)cc(=O)n2c1 [Compound 812] | > 2000 nM | C (C denotes ≤5-fold)
23 | Cc1cc(C(C)Nc2ccccc2C(=O)O)c2nc(-c3c(C)ccc4[nH]ncc34)c(C)c(=O)n2c1 (stereo not shown) [Compound 813] | > 2000 nM | C (C denotes ≤5-fold)
24 | Cc1cc([C@H](C)Nc2ccccc2C(=O)O)c2nc(-c3c(C)ccc4[nH]ncc34)cc(=O)n2c1 [Compound 814] | > 2000 nM | C (C denotes ≤5-fold)
25 | Cc1cc([C@H](C)Nc2ccccc2C(=O)O)c2nc(-c3c(C)ccc4c3cnn4C)cc(=O)n2c1 [Compound 815] | > 2000 nM | C (C denotes ≤5-fold)
26 | Cc1cc([C@@H](C)Nc2ccccc2C(=O)O)c2nc(-c3c(C)ccc4c3cnn4C)cc(=O)n2c1 [Compound 816] | > 2000 nM | C (C denotes ≤5-fold)
27 | Cc1cc(C(C)Nc2ccccc2C(=O)O)c2nc(-c3c(C)ccc4c3cnn4C)cc(=O)n2c1 (stereo not shown) [Compound 817] | > 2000 nM | C (C denotes ≤5-fold)

Continued, values first:

Row | IC50 | T47D pAKT S473 HTRF IC50 (H1047R): T47D (H1047R) selectivity over SKBR3 (WT) | SMILES
28 | < 100 nM | A (A denotes >20-fold) | Cc1cc(C(C)Nc2ccccc2C(=O)O)c2nc(-c3ccc4c(C)nn(C)c4c3)cc(=O)n2c1 (stereo not shown) [Compound 818]
29 | < 100 nM | A (A denotes >20-fold) | Cc1cc([C@@H](C)Nc2ccccc2C(=O)O)c2nc(-c3ccc4c(C)nn(C)c4c3)cc(=O)n2c1 [Compound 819]
30 |  | C (C denotes ≤5-fold) | Cc1cc([C@H](C)Nc2ccccc2C(=O)O)c2nc(-c3ccc4c(C)nn(C)c4c3)cc(=O)n2c1 [Compound 820]
31 | 100 to 500 nM | A (A denotes >20-fold) | Cc1cc(C(C)Nc2ccccc2C(=O)O)c2nc(-c3ccc4c(c3)CC(F)(F)C4)cc(=O)n2c1 (stereo not shown) [Compound 821]
32 | < 100 nM | A (A denotes >20-fold) | Cc1cc([C@@H](C)Nc2ccccc2C(=O)O)c2nc(-c3ccc4c(c3)CC(F)(F)C4)cc(=O)n2c1 [Compound 822]
33 | > 2000 nM | C (C denotes ≤5-fold) | Cc1cc([C@H](C)Nc2ccccc2C(=O)O)c2nc(-c3ccc4c(c3)CC(F)(F)C4)cc(=O)n2c1 [Compound 823]
34 | 500 to 2000 nM | B (B denotes 20-fold≥value>5-fold) | Cc1cc([C@@H](C)Nc2ccccc2C(=O)O)c2nc(-n3cnc4ccc(O)cc43)cc(=O)n2c1 [Compound 826]
35 | > 2000 nM | C (C denotes ≤5-fold) | CC(=O)N=S(C)(=O)c1ccccc1N[C@H](C)c1cc(C)cn2c(=O)cc(N3CCOCC3)nc12 (stereo partly shown) [Compound 827]
36 | 500 to 2000 nM | B (B denotes 20-fold≥value>5-fold) | CC(=O)N=S(C)(=O)c1ccccc1N[C@@H](C)c1cc(C)cn2c(=O)cc(N3CCOCC3)nc12 (stereo partly shown) [Compound 828]
37 | > 2000 nM | C (C denotes ≤5-fold) | CCC(=O)N=S(C)(=O)c1ccccc1N[C@@H](C)c1cc(C)cn2c(=O)cc(N3CCOCC3)nc12 (stereo partly shown) [Compound 829]
38 | 500 to 2000 nM | B (B denotes 20-fold≥value>5-fold) | Cc1cc(C(C)Nc2ccccc2-c2ccnnc2)c2nc(N3Cc4ccccc4C3)c(C3CC3)c(=O)n2c1 (stereo not shown) [Compound 832]
39 | 100 to 500 nM | A (A denotes >20-fold) | Cc1cc(C(C)Nc2ccccc2C(=O)O)c2nc(-c3ccc4c(c3)CC(F)(F)C4)c(C)c(=O)n2c1 (stereo not shown) [Compound 833]
40 | > 2000 nM | C (C denotes ≤5-fold) | Cc1cc(C(C)NC2CCN(S(=O)(=O)N(C)C)C2)c2nc(N3Cc4ccccc4C3)cc(=O)n2c1 (stereo not shown) [Compound 834]

Source: patent US20260132129A1 (Genesis Therapeutics, Inc., priority 2022, published 2026)
